We go through one compound from US10420744B2, “Composition of chlorogenic acid and methods of making and using the same in treating serum lipid levels” (Vidya Herbs, Inc., priority 2014, dated 2019).

Marks after values point to notes of the source that are not given here.

In the assay the test system is high fat diet fed rats. Nature of the assay: Anti-obesity activity, high fat diet in rats. It is filed as in vivo, Wistar rats. Particulars: Group III: high fat diet + orlistat 30 mg/kg. On the procedure:
Objective: The objective was to investigate the effect of the CGA-7 complex against high fat diet fed rats. Model: High fat diet in rats […] Male Wistar rats were divided into six groups with six animals in each group. [table] Body weight was measured once every 2 days. Food intake was measured daily for 42 days. On day 43, all the animals were kept overnight fasting before sacrifice. Blood was collected by puncturing the retro orbital plexus. Serum was separated by centrifugation at 3000 rpm for 10 minutes. Serum was estimated for glucose, cholesterol, triglycerides and HDL. LDL and atherogenic index were also calculated. Liver, mesenteric, brown adipose tissue (BAT), left and right perirenal fat pads, left and right epididymal pads were isolated and weighed. Liver was isolated and estimated for liver triglycerides and cholesterol levels.

On to `CCCCCCCCCCC[C@@H](C[C@@H]1OC(=O)[C@H]1CCCCCC)OC(=O)[C@H](CC(C)C)NC=O` [orlistat, Orlistat], for which the liver cholesterol is recorded as 49.66 ± 3.28***^b and the liver triglycerides is given as 64.64 ± 3.44***^b. Moreover, under “42 days”, the Average food intake is 8.54 ± 0.40^nsb g/rat, the BAT is on record as 0.19 ± 0.01**^b, the “Difference in body weight” value was 88.01 ± 3.68***^b and the “Epididymal fat pad Left” value is 0.50 ± 0.01**^b. In addition, for the setting “42 days”, the “Epididymal fat pad Right” value is 0.48 ± 0.01*^b, the Liver organ weight is 3.47 ± 0.11***^b, the Mesenteric fat is 0.98 ± 0.03*^b and the “Peri renal fat pad tissue Left” value is 0.61 ± 0.05*^b. Also, the “Peri renal fat pad tissue Right” value (42 days) was 0.65 ± 0.04*^b. The Initial weight (baseline, in g (unit assumed)) was determined as 130.3 ± 0.56. Further, under “calculated”, the “Atherogenic Index” value is given as 2.20 ± 0.20***^b. For the setting “day 43”, the “serum Glucose” value is reported as 109.7 ± 3.93**^b mg/dL, the “serum HDL-c” value is 20.47 ± 1.08*^b mg/dL, the “serum Total cholesterol” value is 63.38 ± 0.95***^b mg/dL and the “serum Triglyceride” value is given as 77.63 ± 4.27***^b mg/dL. Also, the “serum LDL-c” value (day 43, calculated) is on record as 27.39 ± 1.07^nsb mg/dL. Moreover, for the setting “male Wistar rats, 42 days, in g (unit assumed)”, the Final weight came to 218.4 ± 2.65.
